Results: ChEMBL document CHEMBL5726342, “NMDA receptor modulators and uses related thereto” (2017)
pIC50: −log10 of the molar value.

Test: Inhibition Assay: Two-electrode voltage-clamp recordings were made from Xenopus laevis oocytes expressing recombinant rat GluN1/GluN2A, GluN1/GluN2B, GluN1/GluN2C, GluN1/GluN2D, GluA1, or GluK2 receptors following injection of 5-10 ng of cRNA synthesized according to manufacturers' protocols (Ambin, mMessage, mMachine). cDNAs used were rat GluN1-1a (GenBank accession numbers U11418 and U08261; hereafter GluN1), GluN2A (D13211), GluN2B (U11419), GluN2C (M91563), GluN2D (L31611), GluA1 (X17184), GluK2 (Z11548). The current under voltage-clamp was recorded during perfusion with recording solution containing (in mM) 90 NaCl, 1.0 KCl, 0.5 BaCl2, 0.005 EDTA, and 10 HEPES at pH 7.4 (23° C.). Glass micropipettes had resistances of 0.3-1.0 MS2 and were filled with 3.0 M KCl. The membrane potential was clamped at −40 mV during the experiment. Recordings were digitized at 10 Hz and analyzed off line. 20 mM stock solutions of test compounds in 100% DMSO were made and diluted to obtain the final concentration; final DMSO content was 0.05-0.5% (vol/vol). Oocytes expressing GluK2 homomeric receptors were first treated with 10 μM concanavalin A (10 minutes). NMDA receptor responses were obtained by challenging oocytes with 100 μM glutamate plus 30 μM glycine; GluA1 and GluK2 receptors responses were recorded during application of 100 μM glutamate. […]
Type: cell-based

pIC50	Compound
5.05	CCc1ccc(C2C(C(=O)c3ccncc3)=C(O)C(=O)N2CCc2c[nH]c3cc(C)ccc23)cc1 (configuration not stated)
5.15	CCc1ccc(C2C(C(=O)c3cccnc3)=C(O)C(=O)N2CCc2c[nH]c3cc(C)ccc23)cc1 (configuration not stated)
